Measured values from patent US4122184A, “Benzimidazole insecticides” (priority 1977, dated 1978).

Key:
[1] = system: Tarnished Plant Bug Adults; assay: Field trial, stomach poison test; type: in vivo; parameters: key: mortality rating on a 0 to 9 scale
Method: (§1) Leaves from the infested plant are treated with different concentrations of the test compounds, either by spraying with a DeVilbiss Special Atomizer (5004) at 10 psi or by dipping the leaves in solutions containing the compound. The leaves are then allowed to air dry.
(§2) After the leaves have dryed, they are placed in plastic petri dishes (100 × 25 mm), then the insects are counted out into each dish, five or ten insects per dish depending on the number of insects available. There are one or two replicates and usually two or three rates with each compound. Mortality results are taken at 24, 48 and 72 hours. The rating scale is 0 to 9.
(§3) Using the above methods, field trials were carried out against species of 5 orders of insects. The results, which are summarized in the following tables, give the average mortality for the particular insect with a given benzimidazole for each concentration employed. […] These tables contain all results obtained during the summer trials.

[2] = system: Unidentified Green Leafhopper; assay: Field trial, stomach poison test; type: in vivo; parameters: key: mortality rating on a 0 to 9 scale
Method: as §1, §2, §3

[3] = system: Potato Flea Beetle Adults; assay: Field trial, contact poison test; type: in vivo
Description: (§4) Infested plants are placed in 6 oz. prescription bottles filled with water to keep them from wilting. Cellucotton is wrapped around the plant stem and squeezed into the bottle neck to prevent the insects from drowning.
(§5) A DeVilbiss Special Atomizer (5004) is used at 10 psi to spray the test plant with different concentrations of compounds. The atomizer is held at arm's length to prevent blowing the insects off the host plant. After treating, the bottles are placed on a table covered with brown wrapping paper to catch the dead insects as they drop from the plant. The plants are spaced so the leaves or plants are not touching one another.
(§6) The results are read at 24, 48, and 72 hours when applicable. The rating scale is 0 to 9 where 0 = 0-10 percent and 9 = 91-100 percent mortality.
as §3

Asparagus Beetles Adults [4] = assay: Field trial, contact poison test; type: in vivo
Description: as §4, §5, §6, §3

Mosquito Larvae = assay: Mosquito larvae test (dip test); type: in vivo, Aedes aegypti; details: 48 h
Method: Aedes aegypti larvae 5 days old are allowed to feed on fresh food for at least 3 hours previous to being placed on test. Larvae are then removed from the rearing pans by pouring on a 20 mesh screen, washing with deionized water, and pooling in a 6-inch white enameled sauce pan.
Twenty larvae are placed in a 1 oz. paper cup containing 25 ml. of deionized water.
Test chemicals are dissolved in a suitable solvent and pipetted under the surface of 225 ml. of deionized water in one pint wide-mouthed Mason jar test containers and stirred. A cup containing 20 larvae in 25 ml. of water is then added. […]
Results are determined 48 hours later by counting the dead and moribund larvae. […] Moribund larvae are those that are capable of limited, or poorly coordinated, locomotion in a sluggish manner.
Live larvae respond normally and actively.

Picnic Beetle [5] = assay: Field trial (first summer), topical; type: in vivo; details: .078125 μg/μl
Method: (§7) In a variation of the above test, 1 microliter of a test solution containing a predetermined number of micrograms of benzimidazole was applied directly to larvae or adult insects.
(§8) During the previous summer similar field trials were conducted employing the same tests as heretofore but with some additional species of insects not included in the later tests. The results listed below are for tests in which an insect mortality was established by a given application route and at a given concentration in a particular test. The same 0 - 9 scoring system is used as is the designation of compounds by alphabetical symbols.

Yellow Mealworm Larvae = assay: Field trial, topical application; type: in vivo; parameters: key: 0 = 0-10% mortality, 9 = 91-100% mortality (0-9 scale)
Method: as §6, §7, §3

Picnic Beetle [6] = assay: Field trial (first summer), stomach; type: in vivo; details: 250 ppm
Method: as §1, §2, §8

[7] = system: Potato Flea Beetle Adults; assay: Field trial, stomach poison test; type: in vivo
Method: as §1, §2, §3

Asparagus Beetles Adults [8] = assay: Field trial, stomach poison test; type: in vivo
Method: as §1, §2, §3

Picnic Beetle [9] = assay: Field trial (first summer), contact; type: in vivo; details: 250 ppm
Description: as §4, §5, §6, §8

Milkweed Beetle = assay: Field trial (first summer), contact; type: in vivo; details: 125 ppm
Description: as §4, §5, §6, §8

[10] = system: Striped Cucumber Beetle Adults; assay: Field trial, stomach poison test; type: in vivo; parameters: key: mortality rating on a 0 to 9 scale
Method: as §1, §2, §3

[11] = system: Southern Corn Rootworm Adults; assay: Field trial, stomach poison test; type: in vivo; parameters: key: mortality rating on a 0 to 9 scale
Method: as §1, §2, §3

Alfalfa Weevil Larvae [12] = assay: Field trial, contact poison test; type: in vivo
Description: as §4, §5, §6, §3

[13] = system: Southern Corn Rootworm Adults; assay: Field trial, contact poison test; type: in vivo
Description: as §4, §5, §6, §3

Mexican Bean Beetle = assay: Field trial (first summer), topical; type: in vivo, Epilachna varivestis; details: .25 μg/μl
Method: as §7, §8

Confused Flour Beetle = assay: Field trial (first summer), topical; type: in vivo; details: .078125 μg/μl
Method: as §7, §8

Milkweed Bug = Milkweed Bug Test; type: in vivo, Oncopeltis fasciatus (Hemiptera); details: 100 ppm, 48 h
Method: Ten adult milkweed bugs are chilled and placed in a test cage. The cages containing the bugs are sprayed with 5 ml. of a test formulation containing a pre-determined amount of the insecticide, using a DeVilbiss atomizer at 10 psi held 33 inches from the top of the cage. After the cage has been allowed to dry, the bugs are fed and watered for 48 hours. A formulation containing 500 ppm of malathion is used as a reference standard and two unsprayed cages are kept as controls. Mortality counts are made 48 hours after spraying. Moribund adults are considered dead. The same rating scale is employed as before.

Squash Bug Adults = assay: Field trial, contact poison test; type: in vivo; parameters: key: 0-9 rating: 0 = 0-10% mortality, 9 = 91-100% mortality
Description: as §4, §5, §6, §3

Boll Weevil [14] = assay: Boll Weevil Test; type: in vivo, Anthonomus grandis (Coleoptera); details: 48 h
Description: The procedure is identical to that employed for the Mexican bean beetle and the Southern armyworm, except that 10 adult boll weevils are placed on cotton leaves that have been dipped into formulations of the test compounds. The same rating scale is used.

Boll Weevil [15] = assay: Field trial (first summer), topical; type: in vivo, Anthonomus grandis
Method: as §7, §8

Alfalfa Weevil Larvae [16] = assay: Field trial, topical application; type: in vivo
Method: as §6, §7, §3

Meadow Spittlebug = assay: Field trial, stomach poison test; type: in vivo
Method: as §1, §2, §3

Alfalfa Weevil Larvae [17] = assay: Field trial, stomach poison test; type: in vivo
Method: as §1, §2, §3

Two-spotted Spider Mite = Two-spotted Spider Mite test; type: in vivo, Tetranychus urticae (Acarina); details: 48 h
Method: The procedure in this test is the same as that in the previous aphid test, except that about 100 two-spotted spider mites from a stock colony raised on squash plants are transferred to a cut squash cotyledon. The mortality is estimated 48 hours after spraying. The same rating scale is used.

[18] = system: Red-Legged Grasshopper Adults; assay: Field trial, contact poison test; type: in vivo
Description: as §4, §5, §6, §3

Bean Leaf Beetle [19] = assay: Field trial, contact poison test; type: in vivo
Description: as §4, §5, §6, §3

[20] = system: Red-Legged Grasshopper Adults; assay: Field trial, stomach poison test; type: in vivo
Method: as §1, §2, §3

Bean Leaf Beetle [21] = assay: Field trial, stomach poison test; type: in vivo
Method: as §1, §2, §3

## CCN(CC)C(=O)n1c(SC(F)(F)F)nc2c([N+](=O)[O-])cc(SC(F)(F)F)cc21 [S, n,n-diethyl-4-nitro-2,6-bis(trifluoromethyl)thio-1-benzimidazolecarboxamide]
[1]; 25 ppm
  average mortality rating: 5
[2]; 10 ppm
  average mortality rating: 3
[2]; 25 ppm
  average mortality rating: 0 (0-10 percent)
[2]; 50 ppm
  average mortality rating: 0 (0-10 percent)
[3]; 10 ppm
  average mortality rating: 5
[3]; 25 ppm
  average mortality rating: 8
[3]; 50 ppm
  average mortality rating: 9 (91-100 percent mortality)
Asparagus Beetles Adults [4]; 10 ppm
  average mortality rating: 0 (0-10 percent)
Asparagus Beetles Adults [4]; 25 ppm
  average mortality rating: 8
Asparagus Beetles Adults [4]; 50 ppm
  average mortality rating: 5
Mosquito Larvae; 0.010 ppm
  average mortality rating: 4 (45-50%)
Mosquito Larvae; 0.025 ppm
  average mortality rating: 5 (55-60%)
Mosquito Larvae; 0.05 ppm
  average mortality rating: 5 (55-60%)
Mosquito Larvae; 0.1 ppm
  average mortality rating: 9 (95-100%)
Picnic Beetle [5]
  insect mortality rating: 9 (91-100 percent mortality)
Yellow Mealworm Larvae; 0.03 μg/μl
  average mortality rating: 2
Yellow Mealworm Larvae; 0.07 μg/μl
  average mortality rating: 4
Yellow Mealworm Larvae; 0.15 μg/μl
  average mortality rating: 4
Picnic Beetle [6]
  insect mortality rating: 9 (91-100 percent mortality)
[7]; 10 ppm
  average mortality rating: 3
[7]; 25 ppm
  average mortality rating: 7
[7]; 50 ppm
  average mortality rating: 9 (91-100 percent mortality)
Asparagus Beetles Adults [8]; 5 ppm
  average mortality rating: 7
Asparagus Beetles Adults [8]; 10 ppm
  average mortality rating: 7
Asparagus Beetles Adults [8]; 25 ppm
  average mortality rating: 9 (91-100 percent mortality)
Picnic Beetle [9]
  insect mortality rating: 9 (91-100 percent mortality)
Milkweed Beetle
  insect mortality rating: 9 (91-100 percent mortality)

## O=[N+]([O-])c1cc(C(F)(F)F)cc2c1nc(C(F)(F)F)n2S(=O)(=O)c1ccccc1 [F, 2,6-bis(trifluoromethyl)-4-nitro-1-phenylsulfonylbenzimidazole]
[10]; 10 ppm
  average mortality rating: 0 (0-10 percent)
[10]; 25 ppm
  average mortality rating: 3
[10]; 50 ppm
  average mortality rating: 3
[1]; 10 ppm
  average mortality rating: 4
[1]; 25 ppm
  average mortality rating: 4
[1]; 50 ppm
  average mortality rating: 2
[11]; 25 ppm
  average mortality rating: 3
[11]; 50 ppm
  average mortality rating: 4
[11]; 100 ppm
  average mortality rating: 5
[2]; 10 ppm
  average mortality rating: 1
[2]; 25 ppm
  average mortality rating: 1
[2]; 50 ppm
  average mortality rating: 7
[3]; 10 ppm
  average mortality rating: 8
[3]; 25 ppm
  average mortality rating: 8
[3]; 50 ppm
  average mortality rating: 9 (91-100 percent mortality)
Alfalfa Weevil Larvae [12]; 500 ppm
  average mortality rating: 8
Alfalfa Weevil Larvae [12]; 750 ppm
  average mortality rating: 8
Alfalfa Weevil Larvae [12]; 1000 ppm
  average mortality rating: 8
[13]; 25 ppm
  average mortality rating: 2
[13]; 50 ppm
  average mortality rating: 5
[13]; 100 ppm
  average mortality rating: 9 (91-100 percent mortality)
Mosquito Larvae; 0.010 ppm
  average mortality rating: 8 (85-90%)
Mosquito Larvae; 0.025 ppm
  average mortality rating: 5 (55-60%)
Mosquito Larvae; 0.05 ppm
  average mortality rating: 8 (85-90%)
Mosquito Larvae; 0.1 ppm
  average mortality rating: 9 (95-100%)
Mexican Bean Beetle
  insect mortality rating: 9 (91-100 percent mortality)
Confused Flour Beetle
  insect mortality rating: 9 (91-100 percent mortality)
Milkweed Bug
  mortality rating: 7.5
Yellow Mealworm Larvae; 0.03 μg/μl
  average mortality rating: 2
Yellow Mealworm Larvae; 0.07 μg/μl
  average mortality rating: 3
Yellow Mealworm Larvae; 0.15 μg/μl
  average mortality rating: 5
Squash Bug Adults; 125 ppm
  average mortality rating: 0 (0-10 percent)
Squash Bug Adults; 250 ppm
  average mortality rating: 4
Squash Bug Adults; 500 ppm
  average mortality rating: 7
Squash Bug Adults; 750 ppm
  average mortality rating: 9 (91-100 percent mortality)
Boll Weevil [14]; 25 ppm
  mortality rating: 7.5
Boll Weevil [14]; 50 ppm
  mortality rating: 6.5
Boll Weevil [14]; 250 ppm
  mortality rating: 8.5
Boll Weevil [15]; .078125 μg/μl
  insect mortality rating: 9 (91-100 percent mortality)
Alfalfa Weevil Larvae [16]; 0.03 μg/μl
  average mortality rating: 1
Alfalfa Weevil Larvae [16]; 0.07 μg/μl
  average mortality rating: 1
Alfalfa Weevil Larvae [16]; 0.1 μg/μl
  average mortality rating: 3
[7]; 10 ppm
  average mortality rating: 9 (91-100 percent mortality)
[7]; 25 ppm
  average mortality rating: 9 (91-100 percent mortality)
[7]; 50 ppm
  average mortality rating: 9 (91-100 percent mortality)
Meadow Spittlebug; 10 ppm
  average mortality rating: 0 (0-10 percent)
Meadow Spittlebug; 25 ppm
  average mortality rating: 1
Meadow Spittlebug; 50 ppm
  average mortality rating: 7
Alfalfa Weevil Larvae [17]; 125 ppm
  average mortality rating: 1
Alfalfa Weevil Larvae [17]; 250 ppm
  average mortality rating: 2
Alfalfa Weevil Larvae [17]; 500 ppm
  average mortality rating: 7
Two-spotted Spider Mite; 1 ppm
  mortality rating: 6.3
Two-spotted Spider Mite; 5 ppm
  mortality rating: 7.5
Two-spotted Spider Mite; 10 ppm
  mortality rating: 6.8

## O=[N+]([O-])c1cc(C(F)(F)F)cc2nc(C(F)F)[nH]c12 [Q, 2-difluoromethyl-4-nitro-6-trifluoromethylbenzimidazole]
[10]; 10 ppm
  average mortality rating: 2
[10]; 25 ppm
  average mortality rating: 3
[10]; 50 ppm
  average mortality rating: 2
[10]; 100 ppm
  average mortality rating: 2
[3]; 10 ppm
  average mortality rating: 3
[3]; 25 ppm
  average mortality rating: 6
[3]; 50 ppm
  average mortality rating: 8
[18]; 10 ppm
  average mortality rating: 0 (0-10 percent)
[18]; 25 ppm
  average mortality rating: 4
[18]; 50 ppm
  average mortality rating: 5
Bean Leaf Beetle [19]; 25 ppm
  average mortality rating: 0 (0-10 percent)
Bean Leaf Beetle [19]; 50 ppm
  average mortality rating: 0 (0-10 percent)
Bean Leaf Beetle [19]; 100 ppm
  average mortality rating: 0 (0-10 percent)
Confused Flour Beetle
  insect mortality rating: 7
Picnic Beetle [5]
  insect mortality rating: 9 (91-100 percent mortality)
Yellow Mealworm Larvae; 0.03 μg/μl
  average mortality rating: 1
Yellow Mealworm Larvae; 0.07 μg/μl
  average mortality rating: 4
Yellow Mealworm Larvae; 0.15 μg/μl
  average mortality rating: 7
Boll Weevil [15]; .15625 μg/μl
  insect mortality rating: 5
[7]; 5 ppm
  average mortality rating: 0 (0-10 percent)
[7]; 10 ppm
  average mortality rating: 1
[7]; 25 ppm
  average mortality rating: 1
[7]; 50 ppm
  average mortality rating: 5
[20]; 10 ppm
  average mortality rating: 1
[20]; 25 ppm
  average mortality rating: 1
[20]; 50 ppm
  average mortality rating: 5
Bean Leaf Beetle [21]; 10 ppm
  average mortality rating: 0 (0-10 percent)
Bean Leaf Beetle [21]; 25 ppm
  average mortality rating: 0 (0-10 percent)
Bean Leaf Beetle [21]; 50 ppm
  average mortality rating: 0 (0-10 percent)
